Molecular target: T1, trypanothione synthetase-amidase (TRYS) (Trypanosoma brucei, UniProt Q586P2)
T1 sequence (Q586P2 1-627): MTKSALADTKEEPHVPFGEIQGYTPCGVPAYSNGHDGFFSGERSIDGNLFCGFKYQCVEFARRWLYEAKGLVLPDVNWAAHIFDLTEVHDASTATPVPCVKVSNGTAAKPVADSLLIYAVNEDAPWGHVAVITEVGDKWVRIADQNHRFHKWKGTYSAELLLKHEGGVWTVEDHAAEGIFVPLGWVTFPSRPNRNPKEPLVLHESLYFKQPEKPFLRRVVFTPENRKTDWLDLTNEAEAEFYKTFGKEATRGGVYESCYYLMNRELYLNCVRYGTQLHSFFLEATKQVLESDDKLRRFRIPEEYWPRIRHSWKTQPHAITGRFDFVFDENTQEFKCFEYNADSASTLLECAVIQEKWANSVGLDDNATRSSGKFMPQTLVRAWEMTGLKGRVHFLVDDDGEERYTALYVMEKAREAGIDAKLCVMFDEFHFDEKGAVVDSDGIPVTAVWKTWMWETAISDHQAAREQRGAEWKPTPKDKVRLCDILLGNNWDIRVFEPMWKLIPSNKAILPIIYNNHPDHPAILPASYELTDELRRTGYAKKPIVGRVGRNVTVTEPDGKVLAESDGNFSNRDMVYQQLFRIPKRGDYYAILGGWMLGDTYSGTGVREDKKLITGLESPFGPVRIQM
Assay: inhibition of recombinant TRYS
Type: biochemical

CN(C)CCCNC(=O)Cn1nc(-c2cccc(F)c2)c2ccccc21 [DDU 86439, N-(3-(dimethylamino)propyl)-2-(3-(3-fluorophenyl)-1H-indazol-1-yl)acetamide]
IC50: 0.045 µM

From PMC2784880 (2009)
